Reference: ChEMBL document CHEMBL5154936, “Scaffold Hopping Strategy to Identify Prostanoid EP4 Receptor Antagonists for Cancer Immunotherapy” (J Med Chem, 2022)

Assays:
[1] = target: Prostaglandin E2 receptor EP4 subtype (Mus musculus, UniProt P32240); assay: Antagonist activity at mouse EP4 receptor transfected in CHO/Galpha16 cells preincubated for 15 mins followed by PGE2 addition by calcium flux assay; format: functional, cell-based
[2] = target: T1, CYP2B6 (Homo sapiens, UniProt P20813); assay: Inhibition of CYP2B6 (unknown origin) at 20 uM; format: ADME
T1 sequence (P20813 whole entry): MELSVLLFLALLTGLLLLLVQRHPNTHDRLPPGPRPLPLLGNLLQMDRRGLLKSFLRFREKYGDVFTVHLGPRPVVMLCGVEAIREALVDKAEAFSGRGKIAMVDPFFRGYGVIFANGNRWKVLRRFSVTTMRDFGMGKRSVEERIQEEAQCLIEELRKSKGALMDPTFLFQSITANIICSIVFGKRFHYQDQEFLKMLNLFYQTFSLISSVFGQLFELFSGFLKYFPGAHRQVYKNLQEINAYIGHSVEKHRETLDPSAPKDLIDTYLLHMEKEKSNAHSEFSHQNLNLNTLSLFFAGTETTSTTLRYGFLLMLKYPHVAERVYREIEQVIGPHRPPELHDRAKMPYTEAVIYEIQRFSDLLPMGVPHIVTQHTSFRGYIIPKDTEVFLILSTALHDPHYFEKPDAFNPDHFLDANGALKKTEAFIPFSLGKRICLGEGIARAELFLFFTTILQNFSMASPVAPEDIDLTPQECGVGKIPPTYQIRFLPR

[3] = AUC (0 to infinity) in BALB/c mouse at 5 mg/kg, po measured upto 24 hrs by LC-MS/MS analysis; format: ADME, organism-based; set-up: dose 5 mg/kg, time < 24 hrs, route po; details: in vivo
[4] = Half life in BALB/c mouse at 5 mg/kg, po measured upto 24 hrs by LC-MS/MS analysis; format: ADME, organism-based; details: in vivo
[5] = Toxicity in BALB/c mouse allografted with mouse CT26 cells assessed as change in body weight at 75 mg/kg, po administered once a day measured after 14 days; format: organism-based; details: in vivo, 336 h, time 14 day
[6] = system: CT26; assay: Antitumor activity against mouse CT26 cells allografted in BALB/c mouse assessed as median survival period at 75 mg/kg, po administered once a day for 14 days by Kaplan-Meier method (reference value: 15 days); format: functional; details: time 14 day
[7] = system: CT26; assay: Antitumor activity against mouse CT26 cells allografted in BALB/c mouse assessed as median survival period at 75 mg/kg, po administered once a day for 14 days in presence of anti-PD-1 antibody by Kaplan-Meier method (reference value: 15 days); format: functional; details: time 14 day
[8] = Toxicity in BALB/c mouse allografted with mouse CT26 cells assessed as change in body weight at 75 mg/kg, po administered once a day for 14 days in presence of anti-PD-1 antibody; format: organism-based; details: in vivo, 336 h, time 14 day
[9] = system: EMT6; assay: Cytotoxicity against mouse EMT6 cells assessed as reduction in cell viability incubated for 72 hrs by CCK-8 assay; details: EMT6, 72 h
[10] = system: 3LL cell line; assay: Cytotoxicity against mouse 3LL cells assessed as reduction in cell viability incubated for 72 hrs by CCK-8 assay
[11] = target: Prostaglandin E2 receptor EP4 subtype (Homo sapiens, UniProt P35408); assay: Antagonist activity at human EP4 receptor transfected in CHO/Galpha16 cells preincubated for 15 mins followed by PGE2 addition by calcium flux assay; format: functional, cell-based
[12] = system: CT26; assay: Cytotoxicity against mouse CT26 cells assessed as reduction in cell viability incubated for 72 hrs by CCK-8 assay; details: CT26, 72 h
[13] = system: Panc02; assay: Cytotoxicity against mouse Panc02 cells assessed as reduction in cell viability incubated for 72 hrs by CCK-8 assay; details: Panc02, 72 h
[14] = Cytotoxicity against HEK293 cells assessed as reduction in cell viability incubated for 72 hrs by CCK-8 assay; format: toxicity, cell-based; details: human

Sequence of Prostaglandin E2 receptor EP4 subtype (Mus musculus, UniProt P32240) (P32240 whole entry): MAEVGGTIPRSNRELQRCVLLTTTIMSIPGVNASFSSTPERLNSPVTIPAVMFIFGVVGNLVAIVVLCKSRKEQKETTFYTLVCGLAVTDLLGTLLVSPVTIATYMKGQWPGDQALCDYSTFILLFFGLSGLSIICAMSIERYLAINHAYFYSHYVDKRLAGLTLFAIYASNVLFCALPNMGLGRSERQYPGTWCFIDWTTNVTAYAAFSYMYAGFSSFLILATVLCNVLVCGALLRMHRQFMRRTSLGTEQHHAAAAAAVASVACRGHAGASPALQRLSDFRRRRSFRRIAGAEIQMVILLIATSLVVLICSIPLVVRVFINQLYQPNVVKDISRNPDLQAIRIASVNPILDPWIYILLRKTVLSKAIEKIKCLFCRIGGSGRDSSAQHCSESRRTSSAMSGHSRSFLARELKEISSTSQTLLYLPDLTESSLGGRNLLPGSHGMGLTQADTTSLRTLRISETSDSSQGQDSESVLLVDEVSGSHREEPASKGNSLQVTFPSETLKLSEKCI
Sequence of Prostaglandin E2 receptor EP4 subtype (Homo sapiens, UniProt P35408) (P35408 whole entry): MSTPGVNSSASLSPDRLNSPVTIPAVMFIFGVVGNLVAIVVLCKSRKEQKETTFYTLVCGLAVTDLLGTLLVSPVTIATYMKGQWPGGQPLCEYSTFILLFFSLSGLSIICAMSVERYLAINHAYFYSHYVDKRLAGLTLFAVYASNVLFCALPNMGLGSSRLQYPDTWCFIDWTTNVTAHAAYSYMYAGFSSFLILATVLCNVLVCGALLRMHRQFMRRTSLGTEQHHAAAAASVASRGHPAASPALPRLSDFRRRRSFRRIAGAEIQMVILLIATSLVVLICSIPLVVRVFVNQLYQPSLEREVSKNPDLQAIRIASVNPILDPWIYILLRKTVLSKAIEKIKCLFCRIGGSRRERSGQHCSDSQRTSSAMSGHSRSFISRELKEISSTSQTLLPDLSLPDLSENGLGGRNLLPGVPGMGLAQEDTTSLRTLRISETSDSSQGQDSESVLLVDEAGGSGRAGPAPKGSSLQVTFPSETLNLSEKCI

Row | IC50 [11] | Structure (SMILES) | IC50 [1] | inhibition at 20 µM [2] | AUC(0-inf) [3] | half-life [4] | Activity [5] | MST [6] | MST [7] | Activity [8] | IC50 [9] | IC50 [10] | IC50 [12] | IC50 [13] | IC50 at 72 h [14]
1 |  | O=C(O)c1ccc(CNC(=O)c2c(Cc3ccc(F)cc3)sc3c2CCOC3)cc1 | 24.3 nM | 78% | 2220 ng·h/mL | 6.2 h | Non-Toxic | 26 days | 41 days | Non-Toxic |  |  |  |  | 
2 | 1.7 nM | C[C@H](NC(=O)c1c(Cc2cccc(C(F)(F)F)c2)sc2c1CCOC2)c1ccc(C(=O)O)cc1 | 2.8 nM | 75% | 1690 ng·h/mL | 3.5 h |  |  |  |  | > 100000 nM | > 100000 nM | > 100000 nM | > 100000 nM | > 100000 nM
